How the values were obtained:
[1] = in vivo; cited from earlier work
AChE (E6) = AChE (E6) (Homo sapiens, UniProt P22303)
Procedure: (§1) Single-step enrichment for AChE or BuChE on immobilized antibody: Monoclonal mouse anti-human serum BuChE (53-4) or anti-human ACHE (101-1) antibodies (Liao et al., 1993), were adsorbed to microliter plates (Nunc, Roskilde, Denmark) at […] in 0.1 M carbonate buffer, pH 9.6, for at least four hours at room temperature. Plates were then washed three times in PBS-T buffer (144 mM NaCl, 20 mM Na phosphate, pH 7.4, 0.05% Tween-20). Free binding sites on the well surface of the microliter plate were blocked with PBS-T for one hour at 37° C. […] Microinjected oocyte homogenates containing the enzyme were then added at a dilution of 1:20 in PBS-T or at a concentration of 100 mIU/ml in PBS-T for at least 3 hours at room temperature with agitation. Plates were washed three times with PBS-T before use. Inactivation was performed at pH 7.4 in order to facilitate comparison with similar studies in the literature.
(§2) and 1 μM DFP. The pseudo-first order rate constant for reactivation,
(§3) ^a True first order rate constants for reactivation (kr) and […]

AChE (E5) = AChE (E5) (Homo sapiens, UniProt P22303)
Procedure: as §1, §2, §3

[2] = test system: BuChE D^70 G + Y^114 H + S^425 P; experiment: Reactivation by PAM of DFP-inhibited enzyme; type: biochemical, human
Procedure: (§4) and 1 μM DFP. The pseudo-first order rate constant for reactivation, […]

BuChE S^425 P = experiment: Reactivation by PAM of DFP-inhibited enzyme; type: biochemical, human; settings: 1 mM PAM; pseudo-first order
Procedure: as §4

BuChE F^329 C = experiment: Reactivation by PAM of DFP-inhibited enzyme; type: biochemical, human; settings: 1 mM PAM; pseudo-first order
Procedure: as §4

BuChE D^70 G + S^425 P = experiment: Reactivation by PAM of DFP-inhibited enzyme; type: biochemical, human; settings: 1 mM PAM; pseudo-first order
Procedure: as §4

BuChE L^286 Q = experiment: Reactivation by PAM of DFP-inhibited enzyme; type: biochemical, human; settings: 1 mM PAM; pseudo-first order
Procedure: as §4

BuChE L^286 D = experiment: Reactivation by PAM of DFP-inhibited enzyme; type: biochemical, human; settings: 1 mM PAM; pseudo-first order
Procedure: as §4

BuChE D^70 G = experiment: Reactivation by PAM of DFP-inhibited enzyme; type: biochemical, human
Procedure: as §4

BuChE F^329 Q = experiment: Reactivation by PAM of DFP-inhibited enzyme; type: biochemical, human; settings: 1 mM PAM; pseudo-first order
Procedure: as §4

BuChE F^329 D = experiment: Reactivation by PAM of DFP-inhibited enzyme; type: biochemical, human; settings: 1 mM PAM; pseudo-first order
Procedure: as §4

BuChE F^329 R = experiment: Reactivation by PAM of DFP-inhibited enzyme; type: biochemical, human; settings: 1 mM PAM; pseudo-first order
Procedure: as §4

BuChE L^286 R = experiment: Reactivation by PAM of DFP-inhibited enzyme; type: biochemical, human; settings: 1 mM PAM; pseudo-first order
Procedure: as §4

BuChE D^70 G + Y^114 H = experiment: Reactivation by PAM of DFP-inhibited enzyme; type: biochemical, human; settings: 1 mM PAM; pseudo-first order
Procedure: as §4

[3] = test system: Chimera of human AChE and BuChE; experiment: Reactivation by PAM of DFP-inhibited enzyme; type: biochemical
Procedure: as §4

DIP-BuChE = target: T1, DIP-BuChE (Homo sapiens, UniProt P06276); experiment: Reactivation by PAM of DFP-inhibited enzyme; type: biochemical
T1 construct: made in house; host or cells: Xenopus oocytes (microinjected in vitro transcribed mRNA)
Procedure: as §4

BuChE L^286 K = BuChE L^286 K (Homo sapiens, UniProt P06276, L314K); experiment: Reactivation by PAM of DFP-inhibited enzyme; type: biochemical
Procedure: as §4

[4] = test system: D^70 G BuChE in tandem with one or two additional natural mutations; experiment: Reactivation by 2-PAM of DFP-inactivated enzyme; type: biochemical, human
Procedure: Single-step enrichment for AChE or BuChE on immobilized antibody: Monoclonal mouse anti-human serum BuChE (53-4) or anti-human ACHE (101-1) antibodies (Liao et al., 1993), were adsorbed to microliter plates (Nunc, Roskilde, Denmark) at 0.5 pg/ml in 0.1 M carbonate buffer, pH 9.6, for at least four hours at room temperature. Plates were then washed three times in PBS-T buffer (144 mM NaCl, 20 mM Na phosphate, pH 7.4, 0.05% Tween-20). Free binding sites on the well surface of the microliter plate were blocked with PBS-T for one hour at 37° C. […] Microinjected oocyte homogenates containing the enzyme were then added at a dilution of 1:20 in PBS-T or at a concentration of 100 mIU/ml in PBS-T for at least 3 hours at room temperature with agitation. Plates were washed three times with PBS-T before use. Inactivation was performed at pH 7.4 in order to facilitate comparison with similar studies in the literature.

[5] = true first order, 0.1 to 0.6 mM PAM

Sequence of BuChE L^286 K (P06276 29-602 L314K limits assumed): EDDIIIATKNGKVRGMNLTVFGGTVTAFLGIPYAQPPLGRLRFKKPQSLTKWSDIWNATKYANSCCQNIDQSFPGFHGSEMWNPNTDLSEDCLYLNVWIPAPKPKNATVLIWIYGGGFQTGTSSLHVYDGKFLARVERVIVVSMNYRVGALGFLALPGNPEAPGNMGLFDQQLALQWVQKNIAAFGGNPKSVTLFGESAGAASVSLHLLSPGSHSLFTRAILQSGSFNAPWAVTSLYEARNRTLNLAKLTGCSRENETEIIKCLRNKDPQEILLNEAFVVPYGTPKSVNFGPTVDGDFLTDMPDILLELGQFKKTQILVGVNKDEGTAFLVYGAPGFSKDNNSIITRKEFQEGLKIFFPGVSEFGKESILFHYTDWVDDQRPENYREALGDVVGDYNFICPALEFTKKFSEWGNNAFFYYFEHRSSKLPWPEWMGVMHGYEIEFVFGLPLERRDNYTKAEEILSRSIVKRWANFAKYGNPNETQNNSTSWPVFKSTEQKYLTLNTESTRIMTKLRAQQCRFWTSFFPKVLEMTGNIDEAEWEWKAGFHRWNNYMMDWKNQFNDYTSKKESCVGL
T1 sequence (P06276 29-602): as the sequence (P06276 29-602 L314K limits assumed) above, with K286L counted along it
Sequence of AChE (E6) (P22303 32-614): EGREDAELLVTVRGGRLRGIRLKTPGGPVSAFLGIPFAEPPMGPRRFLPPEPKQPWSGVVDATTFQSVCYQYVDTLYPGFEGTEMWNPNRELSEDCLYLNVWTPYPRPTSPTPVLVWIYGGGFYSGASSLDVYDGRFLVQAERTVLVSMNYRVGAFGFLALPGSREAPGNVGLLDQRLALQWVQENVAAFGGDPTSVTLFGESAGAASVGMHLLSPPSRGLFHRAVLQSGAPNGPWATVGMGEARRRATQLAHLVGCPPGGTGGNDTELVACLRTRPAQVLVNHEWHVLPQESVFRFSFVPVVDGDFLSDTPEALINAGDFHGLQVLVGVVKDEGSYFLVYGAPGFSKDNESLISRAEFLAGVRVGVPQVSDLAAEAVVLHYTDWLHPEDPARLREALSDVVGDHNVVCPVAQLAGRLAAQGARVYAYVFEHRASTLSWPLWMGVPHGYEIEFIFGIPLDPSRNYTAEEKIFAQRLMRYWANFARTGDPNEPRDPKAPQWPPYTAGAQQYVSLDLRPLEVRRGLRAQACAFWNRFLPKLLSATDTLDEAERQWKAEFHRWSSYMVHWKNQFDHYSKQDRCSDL
Sequence of AChE (E5) (P22303-4 with tags, fused parts or gaps limits assumed): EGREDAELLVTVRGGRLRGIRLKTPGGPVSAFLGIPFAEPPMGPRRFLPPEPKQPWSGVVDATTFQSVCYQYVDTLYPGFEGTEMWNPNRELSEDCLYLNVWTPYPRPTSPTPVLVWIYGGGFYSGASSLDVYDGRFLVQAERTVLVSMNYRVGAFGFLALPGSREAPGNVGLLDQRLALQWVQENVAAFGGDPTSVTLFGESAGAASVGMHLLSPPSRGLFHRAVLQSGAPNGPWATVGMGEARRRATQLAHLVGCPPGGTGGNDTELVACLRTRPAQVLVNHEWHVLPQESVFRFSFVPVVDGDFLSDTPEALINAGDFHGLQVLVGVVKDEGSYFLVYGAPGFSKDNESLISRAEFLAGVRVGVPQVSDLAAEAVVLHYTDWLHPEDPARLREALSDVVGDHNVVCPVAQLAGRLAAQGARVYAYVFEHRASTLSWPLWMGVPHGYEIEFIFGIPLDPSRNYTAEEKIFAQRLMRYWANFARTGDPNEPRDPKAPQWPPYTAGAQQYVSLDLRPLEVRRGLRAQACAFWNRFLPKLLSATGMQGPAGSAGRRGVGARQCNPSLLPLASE

## CCN(CC)C(=O)c1cccc(C)c1 [DEET]
[1]
  toxicity of anti-ChEs: amplify the toxicity of anti-ChEs

## C[n+]1ccccc1C=NO [PAM, Pyridine-2-aldoxime methiodide]
AChE (E6); 1 mM PAM, pseudo-first order
  k'r × 10^3: 6 ± 2 min^-1
AChE (E6); [5]
  kr × 10^3: 7 ± 3 min^-1
AChE (E5); 1 mM PAM, pseudo-first order
  k'r × 10^3: 8 ± 3 min^-1
AChE (E5); [5]
  kr × 10^3: 10 ± 5 min^-1
[2]; 1 mM PAM, pseudo-first order
  k'r × 10^3: 4 ± 1 min^-1
[2]; all three mutations
  decrease in the rate of reactivation: 40 fold
BuChE S^425 P
  k'r × 10^3: 134 ± 8 min^-1
BuChE F^329 C
  k'r × 10^3: 14 ± 2 min^-1
BuChE D^70 G + S^425 P
  k'r × 10^3: 11 min^-1
BuChE L^286 Q
  k'r × 10^3: 120 ± 20 min^-1
BuChE L^286 D
  k'r × 10^3: 120 ± 30 min^-1
BuChE D^70 G; 1 mM PAM, pseudo-first order
  k'r × 10^3: 32 ± 4 min^-1
BuChE D^70 G; D^70 G, DFP-inactivated
  reactivation rate lower than wild-type: 5 fold
BuChE F^329 Q
  k'r × 10^3: 44 ± 15 min^-1
BuChE F^329 D
  k'r × 10^3: 8 ± 1 min^-1
BuChE F^329 R
  k'r × 10^3: 43 min^-1
BuChE L^286 R
  k'r × 10^3: 6 ± 3 min^-1
BuChE D^70 G + Y^114 H
  k'r × 10^3: 12 ± 5 min^-1
[3]; 1 mM PAM, pseudo-first order
  k'r × 10^3: 40 ± 18 min^-1
[3]; chimera
  reactivation rate constant lower than native BuChE: 5 fold
[3]; [5]
  kr × 10^3: 48 ± 20 min^-1
DIP-BuChE; 1 mM PAM, pseudo-first order
  k'r × 10^3: 150 ± 30 min^-1
DIP-BuChE; DFP-inhibited BuChE
  pseudo-first order reactivation rate constant higher than for either form of AChE: 25 fold
DIP-BuChE; [5]
  kr × 10^3: 220 ± 60 min^-1
BuChE L^286 K; 1 mM PAM, pseudo-first order
  k'r × 10^3: 4 ± 1 min^-1
BuChE L^286 K; L^286 K
  reduction in the pseudo-first order rate constant for reactivation: 40 fold
BuChE L^286 K; [5]
  kr × 10^3: 35 ± 27 min^-1
[4]
  rate of reactivation lower than wild type: ≤ 40 fold

From US6326139A (priority 1997, dated 2001)
